Measurements taken from publication PMC11637191, “The pH-dependence of efflux ratios determined with bidirectional transport assays across cellular monolayers” (International Journal of Pharmaceutics: X, 2024).
Like-named read-outs stand apart in the source and are kept apart here. Values belong to the compound of their own block, whether it stands above or below them.

How the values were obtained:
[1] = basic, cited from earlier work
[2] = Calculation of neutral fraction (fn)
[3] = Measurement of paracellular transport (Ppara) in MDCK-MDR1 cells with and without P-gp inhibitors; type: in vitro ADME, canine; settings: dog, + 2 µM elacridar
From the text: In initial fits, we used experimentally obtained values for Ppara , determined by measuring the Papp of the relevant compound at a pH value where paracellular transport was expected to dominate. Since the compounds in this study are P-gp substrates, elacridar was also used to inhibit P-gp. Under these conditions, the measured Papp is expected to be a measure of Ppara . […]
X Measurement of paracellular transport […]
assess its relative contribution to overall flux, it is necessary to quantify paracellular transport in some way. An approximation of paracellular transport can be mathematically calculated as desc ribed in […]
and cell type can influence and complicate the predictions, leading to uncertainties. H owever, it can also be experimentally measured provided that it can be assured that the P app would be dominated by the contribution of P para . […]
compounds. In order to ensure paracellular dominance, 2 µM elacridar was used to inhibit potential P-gp facilitated efflux, and the transport buffer was set to a pH that would severely restrict the neutral […]
Table S13: P app values and measured logP para for basic and acidic marker compounds. P app values are the mean of three timepoints per replicate, for a total of three replicates (n = 3) ± standard […]
Compound pH Papp, A⟶B logP para Recovery fn
In light of the uncertainties in predicting P para , it was presumed more apt to measure P para for each compound individually in parallel with the pH dependence experiments. As described in Section 4.3 of the main text, experiments were initially performed for each tested compound with inhibitor and appropriate pH values (similar to those performed for Table S12) in an attempt to ensure the dominance of paracellular transport. These values could then be used as a direct measure for P para for each compound that could be fed to the model for its individual fit. […]
affecting P para and/or the measurement of it, we measured the P app of more commonly-used markers for paracellular transport with and without inhibitor. The transport of these rather hydrophilic compounds is known to be dominated by the paracellular route. Furthermore, for our MDCK- MDR1 […]
efflux is not expected to play a role. As such, the addition of inhibitor in this case is purely to evaluate if the P app changes when it is present.

in vitro = settings: dog
P-gp (MDR1) = test: in vitro; settings: dog
MDCK-MDR1 cells [4] = settings: pH 7.4 iso-method, cited from earlier work; for Papp, B⟶A: without inhibitor; for Papp, inhibitor: with inhibitor
MDCK-MDR1 cells [5] = test: Comparison of Papp,B-A with and without inhibitor in MDCK-MDR1 cells (own and literature data); settings: calculated from literature Papp,B⟶A and Papp with inhibitor; pH 7.4 iso-method
[6] = ref Troutman and Thakker (2003)

SMILES: CC(C)(C)NCC(O)COc1ccc(NC(=O)NC2CCCCC2)cc1 (stereo not shown) [Talinolol]
pKa ([1]; no reference given): 9.4 | fn ([2]; neutral fraction at pH 8): 5%

recovery ([3]; MDCK-MDR1, pH 5, with elacridar 2 µM, pH 5, n = 3 (Table S13)): 130% | Papp ([3]; MDCK-MDR1, with elacridar 2 µM, pH 5, three replicates (n = 3) (Table S13)): 0.4 ± 0.1 ×10⁻⁶ cm/s | fn ([2]; neutral fraction at pH 5): 0.0% | logPapp, B⟶A (MDCK-II-MDR1 cells; pH 6, iso-pH method): -6.64 P in cm/s | logPapp, B⟶A (MDCK-II-MDR1 cells; pH 7, iso-pH method): -6.11 P in cm/s | logPapp, B⟶A (MDCK-II-MDR1 cells; pH 8, iso-pH method): -5.36 P in cm/s | recovery (in vitro; MDCK-MDR1, pH 5): 94 to 100% | recovery (in vitro; MDCK-MDR1, pH 6): 90 to 96% | recovery (in vitro; MDCK-MDR1, pH 7): 88 to 93% | recovery (in vitro; MDCK-MDR1, pH 8): 64 to 71% | Papp (P-gp (MDR1); MDCK-MDR1, pH 5): 0.77 ± 0.26 ×10⁻⁶ cm/s | Papp A→B (P-gp (MDR1); MDCK-MDR1, pH 5): 0.457 ×10⁻⁶ cm/s | Papp B→A (P-gp (MDR1); MDCK-MDR1, pH 5): 0.46 ± 0.25 ×10⁻⁶ cm/s | Papp (P-gp (MDR1); MDCK-MDR1, pH 6): 0.16 ± 0.03 ×10⁻⁶ cm/s | Papp B→A (P-gp (MDR1); MDCK-MDR1, pH 6): 0.23 ± 0.08 ×10⁻⁶ cm/s | Papp (P-gp (MDR1); MDCK-MDR1, pH 7): 0.13 ± 0.03 ×10⁻⁶ cm/s | Papp B→A (P-gp (MDR1); MDCK-MDR1, pH 7): 0.78 ± 0.36 ×10⁻⁶ cm/s | Papp (P-gp (MDR1); MDCK-MDR1, pH 8): 0.17 ± 0.05 ×10⁻⁶ cm/s | Papp B→A (P-gp (MDR1); MDCK-MDR1, pH 8): 4.4 ± 0.29 ×10⁻⁶ cm/s
SMILES: COc1cccc2c1C(=O)c1c(O)c3c(c(O)c1C2=O)C[C@@](O)(C(=O)CO)C[C@@H]3O[C@H]1C[C@H](N)[C@H](O)[C@H](C)O1 [Doxorubicin]
pKa ([1]; ref Advanced Chemistry Development, 2020): 9.56

Factor difference (MDCK-MDR1 cells [5]): 3
SMILES: CN1CCC[C@@H]1CCO[C@](C)(c1ccccc1)c1ccc(Cl)cc1 [Clemastine]
Papp, B⟶A (MDCK-MDR1 cells [4]; ref Obradovic et al. (2007)): 156.4 ×10⁻⁶ cm/s

SMILES: C=C[C@H]1C[N@@]2CC[C@H]1C[C@@H]2[C@@H](O)c1ccnc2ccc(OC)cc12 [Quinidine]
Papp, inhibitor (MDCK-MDR1 cells [4]; ref Gertz et al. (2010)): 0.176 ×10⁻⁶ cm/s | Papp, inhibitor (MDCK-MDR1 cells [4]; [6]): 25.6 ×10⁻⁶ cm/s | Papp, inhibitor (MDCK-MDR1 cells [4]; ref Wang et al. (2005)): 10 ×10⁻⁶ cm/s | Papp, B⟶A (MDCK-MDR1 cells [4]; ref Gertz et al. (2010)): 66.88 ×10⁻⁶ cm/s | Papp, B⟶A (MDCK-MDR1 cells [4]; [6]): 156 ×10⁻⁶ cm/s | Papp, B⟶A (MDCK-MDR1 cells [4]; ref Wang et al. (2005)): 114.82 ×10⁻⁶ cm/s

Factor difference (MDCK-MDR1 cells [5]): 5
SMILES: CC(C)NCC(O)c1ccc(NS(C)(=O)=O)cc1 (stereo not shown) [Sotolol]
Papp, inhibitor (MDCK-MDR1 cells [4]; ref Liu et al. (2012)): 0.2 ×10⁻⁶ cm/s | Papp, B⟶A (MDCK-MDR1 cells [4]; ref Liu et al. (2012)): 1.05 ×10⁻⁶ cm/s

Factor difference (MDCK-MDR1 cells [5]): 2
SMILES: CN(C)CCC(c1ccc(Br)cc1)c1ccccn1 (stereo not shown) [Brompheniramine]
Papp, inhibitor (MDCK-MDR1 cells [4]; ref Obradovic et al. (2007)): 76.8 ×10⁻⁶ cm/s | Papp, B⟶A (MDCK-MDR1 cells [4]; ref Obradovic et al. (2007)): 118.8 ×10⁻⁶ cm/s

SMILES: CC[C@]1(O)C[C@@H]2CN(CCc3c([nH]c4ccccc34)[C@@](C(=O)OC)(c3cc4c(cc3OC)N(C)[C@H]3[C@@](O)(C(=O)OC)[C@H](OC(C)=O)[C@]5(CC)C=CCN6CC[C@]43[C@@H]65)C2)C1 [Vinblastine]
Papp, inhibitor (MDCK-MDR1 cells [4]; ref Taub et al. (2005)): 1.92 ×10⁻⁶ cm/s | Papp, inhibitor (MDCK-MDR1 cells [4]; [6]): 17.7 ×10⁻⁶ cm/s | Papp, inhibitor (MDCK-MDR1 cells [4]; ref Wang et al. (2005)): 1.2 ×10⁻⁶ cm/s | Papp, B⟶A (MDCK-MDR1 cells [4]; ref Taub et al. (2005)): 13.22 ×10⁻⁶ cm/s | Papp, B⟶A (MDCK-MDR1 cells [4]; [6]): 35.7 ×10⁻⁶ cm/s | Papp, B⟶A (MDCK-MDR1 cells [4]; ref Wang et al. (2005)): 10.77 ×10⁻⁶ cm/s

Factor difference (MDCK-MDR1 cells [5]): 6
SMILES: CCOC(=O)CN[C@@H](C(=O)N1CC[C@H]1C(=O)NCc1ccc(/C(N)=N\O)cc1)C1CCCCC1 [Ximelagatran]
Papp, inhibitor (MDCK-MDR1 cells [4]; ref Eriksson et al. (2006)): 7 ×10⁻⁶ cm/s | Papp, B⟶A (MDCK-MDR1 cells [4]; ref Eriksson et al. (2006)): 39 ×10⁻⁶ cm/s

Factor difference (MDCK-MDR1 cells [5]): 2
SMILES: CN1CCC[C@@H]1Cc1c[nH]c2ccc(CCS(=O)(=O)c3ccccc3)cc12 [Eletriptan]
Papp, inhibitor (MDCK-MDR1 cells [4]; ref Doan et al. (2002)): 42.9 ×10⁻⁶ cm/s | Papp, B⟶A (MDCK-MDR1 cells [4]; ref Doan et al. (2002)): 66.3 ×10⁻⁶ cm/s

fn ([2]; neutral fraction at pH 9): 0.0%
SMILES: NS(=O)(=O)c1cc(C(=O)O)c(NCc2ccco2)cc1Cl [Furosemide]

Factor difference (MDCK-MDR1 cells [5]): 4
SMILES: CN/C(=N/CCSCc1nc[nH]c1C)NC#N [Cimetidine]
Papp, inhibitor (MDCK-MDR1 cells [4]; ref Doan et al. (2002)): 0.515 ×10⁻⁶ cm/s | Papp, B⟶A (MDCK-MDR1 cells [4]; ref Doan et al. (2002)): 1.89 ×10⁻⁶ cm/s
